Holding throughout (assay type): cell-based
The subject of one assay is K562. Description: Antiproliferation assay (MTS), K562 cells. Particulars: Homo sapiens, K562, 96 h. The procedure:
(§1) Cells were grown at 37° C. in a humidified atmosphere consisting of 5% CO2 and 95% air.
(§2) Antiproliferation Assays: Cells were plated in a 96-well culture plate with 2000-8000 cells per well. The compounds were prepared in DMSO and used to treat cells in a final concentration of less than 1% DMSO. Compound treatment started after overnight incubation of cells (T0). […] Compound was added to the plate in triplicate wells, and the plates were then incubated for 96 hours. DMSO (compound diluent) was also included and added to the plate in control wells. Cell viability was then determined by MTS assay using the CellTiter 96® aqueous non-radioactive cell proliferation assay system (Promega, Madison, Wis. 53711 USA). A plate reader (Vmax, Molecular Devices, Sunnyvale Calif. 94089 USA) was used to determine the optical densities, and the results were used to deduce concentration-response curves. […] The results were analyzed using linear regression software (GraphPad Prism 5; GraphPad Software Inc. La Jolla Calif. 92037 USA).

The test system of the next assay is MDA-MB-468. As to the kind of experiment: Antiproliferation assay (MTS), MDA-MB-468 cells. Conditions: Homo sapiens, MDA-MB-468, 96 h. How it is done: as §1, §2
Another assay concerns MDA-MB-231. As to the kind of experiment: Antiproliferation assay (MTS), MDA-MB-231 cells. Conditions: Homo sapiens, MDA-MB-231, 96 h. The procedure: as §1, §2
The next assay concerns Hela. Description: Antiproliferation assay (MTS), HeLa cells. Conditions: Homo sapiens, 96 h. How it is done: as §1, §2
Setting [1] is: Table 1, read-out: Antiproliferative IC50 K562.
Where [2] appears, read: Table 1, read-out: Antiproliferative IC50 MDA-MB-468.
Setting [3] is: read-out: Antiproliferative IC50 MDA-MB-231, Table 1.
Setting [4] is: Table 1, read-out: Antiproliferative IC50 Hela.

Data on 18 compounds can be found in US8999983B2, “Modulators of Hec1 activity and methods therefor” (Taivex Therapeutics Corporation, priority 2011, dated 2015).

Each structure is given as a SMILES string. Like-named read-outs stand apart in the source and are kept apart here.

Broadly, the IC50 is the concentration needed to halve the response being measured.

With `COc1ccc(Oc2cc(C)c(-c3csc(NC(=O)c4ccncc4)n3)c(F)c2)cc1` [Compound 30, N-{4-(2-Fluoro-4-(4-methoxyphenoxy)-6-methylphenyl)thiazol-2-yl}isonicotinamide], the IC50 with K562 (setting [1]) worked out at 107 nM; in the assay on MDA-MB-468 (setting [2]), 143 nM; in the assay on MDA-MB-231 (setting [3]), 270 nM; in the assay with Hela (setting [4]) it was 108 nM.
In the same order, the values of `COCCOc1cnc(S(=O)(=O)c2cc(C)c(-c3csc(NC(=O)c4ccncc4)n3)c(C)c2)cn1` [Compound 31, N-(4-{4-(5-(2-Methoxyethoxy)pyrazin-2-ylsulfonyl)-2,6-dimethylphenyl}thiazol-2-yl)isonicotinamide] are 635 nM, 1000 nM, 1120 nM and 957 nM.
In the same order, the values of `COCCOc1cnc([S+]([O-])c2cc(C)c(-c3csc(NC(=O)c4ccncc4)n3)c(C)c2)cn1` (stereo not drawn) [Compound 32, N-(4-{4-(5-(2-Methoxyethoxy)pyrazin-2-ylsulfinyl)-2,6-dimethylphenyl}thiazol-2-yl)isonicotinamide] are 734 nM, 1280 nM, 1700 nM and 1120 nM.
In the case of `COc1ccc(Sc2cc(C)c(-c3csc(NC(=O)c4ccncc4)n3)c(C)c2)cc1OC` [Compound 33, N-{4-(4-(3,4-Dimethoxyphenylsulfanyl)-2,6-dimethylphenyl)thiazol-2-yl}isonicotinamide], the IC50 in the assay on K562 (setting [1]) came out at 28.3 nM; in the assay on MDA-MB-468 (setting [2]), 73 nM; in the assay on MDA-MB-231 (setting [3]), 49.4 nM; in the assay on Hela (setting [4]), 57.1 nM.
Take `Cc1cc(Sc2ccc(O)cc2)cc(C)c1-c1csc(NC(=O)c2ccncc2)n1` [Compound 34, N-{4-(4-(4-Hydroxyphenylsulfanyl)-2,6-dimethylphenyl)thiazol-2-yl}isonicotinamide]: the IC50 was determined as 89.4 nM with K562 (setting [1]), 279 nM with MDA-MB-468 (setting [2]), 184 nM with MDA-MB-231 (setting [3]) and 302 nM in the assay with Hela (setting [4]).
In the same order, the values of `Cc1cc(Sc2ccc(N)cc2)cc(C)c1-c1csc(NC(=O)c2ccncc2)n1` [Compound 35, N-{4-(4-(4-Aminophenylsulfanyl)-2,6-dimethylphenyl)thiazol-2-yl}isonicotinamide] are 26.1 nM, 95.8 nM, 46.9 nM and 43.8 nM.
In the same order, the values of `CC(=O)Nc1ccc(Sc2cc(C)c(-c3csc(NC(=O)c4ccncc4)n3)c(C)c2)cc1` [Compound 36, N-{4-(4-(4-Acetylaminophenylsulfanyl)-2,6-dimethylphenyl)thiazol-2-yl}isonicotinamide] are 18.9 nM, 62.4 nM, 44.3 nM and 24.5 nM.
In the same order, the values of `Cc1cc(Sc2ccc(Br)cc2)cc(C)c1-c1csc(NC(=O)c2ccncc2)n1` [Compound 37, N-{4-(4-(4-Bromophenylsulfanyl)-2,6-dimethylphenyl)thiazol-2-yl}isonicotinamide] are 62.5 nM, 226 nM, 148 nM and 243 nM.
Take `Cc1cc(Sc2cccc(Cl)c2)cc(C)c1-c1csc(NC(=O)c2ccncc2)n1` [Compound 38, N-{4-(4-(3-Chlorophenylsulfanyl)-2,6-dimethylphenyl)thiazol-2-yl}isonicotinamide]: the IC50 in the assay on K562 (setting [1]) turned out to be 128 nM; in the assay on MDA-MB-468 (setting [2]), 352 nM; in the assay with MDA-MB-231 (setting [3]) it was 197 nM; in the assay on Hela (setting [4]), 500 nM.
For `Cc1cc(Sc2ccccc2Cl)cc(C)c1-c1csc(NC(=O)c2ccncc2)n1` [Compound 39, N-{4-(4-(2-Chlorophenylsulfanyl)-2,6-dimethylphenyl)thiazol-2-yl}isonicotinamide], the IC50 in the assay with K562 (setting [1]) was 36.2 nM; in the assay on MDA-MB-468 (setting [2]), 73.9 nM; in the assay on MDA-MB-231 (setting [3]), 55.9 nM; in the assay with Hela (setting [4]) it was 211 nM.
In the same order, the values of `Cc1cc(Sc2ccc(Cl)cc2)cc(C)c1-c1csc(NC(=O)c2ccncc2)n1` [Compound 40, N-{4-(4-(4-Chlorophenylsulfanyl)-2,6-dimethylphenyl)thiazol-2-yl}isonicotinamide] are 93.5 nM, 124 nM, 200 nM and 585 nM.
In the same order, the values of `Cc1cc(Sc2nccn2C)cc(C)c1-c1csc(NC(=O)c2ccncc2)n1` [Compound 41, N-(4-(2,6-Dimethyl-4-((1-methyl-1H-imidazol-2-yl)thio)phenyl)thiazol-2-yl)isonicotinamide] are 31.1 nM, 62.9 nM, 86.1 nM and 61.5 nM.
In the same order, the values of `Cc1cc(Sc2ccc(N(S(C)(=O)=O)S(C)(=O)=O)cc2)cc(C)c1-c1csc(NC(=O)c2ccncc2)n1` [Compound 42, N-(4-(2,6-Dimethyl-4-((4-(N-(methylsulfonyl)methylsulfonamido)phenyl)thio)phenyl)thiazol-2-yl)isonicotinamide] are 59.3 nM, 121 nM, 76.6 nM and 167 nM.
As for `Cc1cc(Sc2ccc(NS(C)(=O)=O)cc2)cc(C)c1-c1csc(NC(=O)c2ccncc2)n1` [Compound 43, N-(4-(2,6-Dimethyl-4-((4-(methylsulfonamido)phenyl)thio)phenyl)thiazol-2-yl)isonicotinamide], the 50% inhibitory concentration (IC50) stood at 26.6 nM with K562 (setting [1]), 49.4 nM with MDA-MB-468 (setting [2]), 53.1 nM in the assay on MDA-MB-231 (setting [3]) and 66.4 nM in the assay with Hela (setting [4]).
In the same order, the values of `Cc1cc(C)c(-c2csc(NC(=O)Cc3ccncc3)n2)c(C)c1` [Compound 47, N-(4-Mesitylthiazol-2-yl)-2-(pyridin-4-yl)acetamide] are 382 nM, 304 nM, 312 nM and 619 nM.
In the same order, the values of `COc1ccc(Oc2cc(C)c(-c3csc(NC(=O)c4ccncc4)n3)c(C)c2)cc1` [Compound 48, N-(4-(4-(4-Methoxyphenoxy)-2,6-dimethylphenyl)thiazol-2-yl)isonicotinamide] are 34.9 nM, 37 nM, 32 nM and 48.6 nM.
In the same order, the values of `COc1ccc(Oc2cc(C)c(-c3csc(NC(=O)c4ccnc(F)c4)n3)c(C)c2)cc1` [Compound 49, 2-Fluoro-N-(4-(4-(4-methoxyphenoxy)-2,6-dimethylphenyl)thiazol-2-yl)isonicotinamide] are 16.3 nM, 40 nM, 20 nM and 42.7 nM.
Turning to `Cc1cc(C)c(-c2csc(NC(=O)Cc3ccncc3)n2)c(C)c1` [II-93, N-(4-Mesitylthiazol-2-yl)-2-(pyridin-4-yl)acetamide], the half-maximal inhibitory concentration (IC50) with K562 (Table 2, read-out: Antiproliferative IC50 K562) worked out at 380 nM; with MDA-MB-468 (Table 2, read-out: Antiproliferative IC50 MDA-MB-468) it was 300 nM; with MDA-MB-231 (read-out: Antiproliferative IC50 MDA-MB-231, Table 2), 310 nM; in the assay with Hela (Table 2, read-out: Antiproliferative IC50 Hela), 620 nM.
